One test deals with T1, human TLR9 (Homo sapiens, UniProt Q9NR96).
T1 construct: host or cells: HEK-Blue cells
T1 sequence (Q9NR96 26-1032): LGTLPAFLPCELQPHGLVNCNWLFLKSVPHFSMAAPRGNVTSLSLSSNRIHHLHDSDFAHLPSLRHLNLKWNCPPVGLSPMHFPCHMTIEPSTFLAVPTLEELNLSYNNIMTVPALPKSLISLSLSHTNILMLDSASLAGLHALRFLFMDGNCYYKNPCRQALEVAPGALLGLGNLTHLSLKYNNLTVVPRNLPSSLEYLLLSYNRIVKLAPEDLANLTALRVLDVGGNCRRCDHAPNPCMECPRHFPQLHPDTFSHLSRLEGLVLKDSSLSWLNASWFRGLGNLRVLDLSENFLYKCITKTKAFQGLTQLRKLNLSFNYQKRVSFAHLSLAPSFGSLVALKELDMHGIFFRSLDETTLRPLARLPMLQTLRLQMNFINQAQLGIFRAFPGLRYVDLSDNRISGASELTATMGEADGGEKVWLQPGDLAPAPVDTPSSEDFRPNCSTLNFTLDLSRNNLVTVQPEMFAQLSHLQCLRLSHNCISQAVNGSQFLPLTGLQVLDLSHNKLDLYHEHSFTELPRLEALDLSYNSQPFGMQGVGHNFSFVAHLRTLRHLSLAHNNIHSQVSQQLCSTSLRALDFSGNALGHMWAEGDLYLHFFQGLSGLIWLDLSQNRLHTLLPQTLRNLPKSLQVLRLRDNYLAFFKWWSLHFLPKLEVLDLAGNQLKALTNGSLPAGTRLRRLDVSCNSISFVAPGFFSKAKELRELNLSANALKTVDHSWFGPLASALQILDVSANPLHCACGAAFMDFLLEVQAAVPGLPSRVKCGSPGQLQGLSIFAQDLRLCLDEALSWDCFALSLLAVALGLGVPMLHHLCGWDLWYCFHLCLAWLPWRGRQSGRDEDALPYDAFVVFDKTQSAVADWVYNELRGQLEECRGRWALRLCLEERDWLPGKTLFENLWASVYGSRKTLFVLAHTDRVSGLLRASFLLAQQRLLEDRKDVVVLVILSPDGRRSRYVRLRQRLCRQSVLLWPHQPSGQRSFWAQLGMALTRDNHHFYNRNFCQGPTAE
Kind of test: TLR9 inhibition reporter assay (HEK-Blue cells, SEAP reporter, ODN2006 stimulation). Format: cell-based. As to conditions: HEK-Blue cells overexpressing human TLR9, ODN2006 5 nM. The essentials:
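Agonists used: gardiquimod 7.5 μM (TLR7), R848 15.9 μM (TLR8), ODN2006 5 nM (TLR9), added after 30 min room-temperature compound pre-treatment (0.05 nM–50 μM) of receptor-overexpressing HEK-Blue cells. SEAP reporter (NF-κB/AP-1 driven) read after 22 h at 37 °C; inhibition scaled between agonist+DMSO and reference-inhibitor wells.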
On the technique in general: In a reporter assay the amount or activity of a reporter protein is the signal.

The next test concerns the target T2, human TLR7 (Homo sapiens, UniProt Q9NYK1).
T2 construct: host or cells: HEK-Blue cells
T2 sequence (Q9NYK1 27-1049): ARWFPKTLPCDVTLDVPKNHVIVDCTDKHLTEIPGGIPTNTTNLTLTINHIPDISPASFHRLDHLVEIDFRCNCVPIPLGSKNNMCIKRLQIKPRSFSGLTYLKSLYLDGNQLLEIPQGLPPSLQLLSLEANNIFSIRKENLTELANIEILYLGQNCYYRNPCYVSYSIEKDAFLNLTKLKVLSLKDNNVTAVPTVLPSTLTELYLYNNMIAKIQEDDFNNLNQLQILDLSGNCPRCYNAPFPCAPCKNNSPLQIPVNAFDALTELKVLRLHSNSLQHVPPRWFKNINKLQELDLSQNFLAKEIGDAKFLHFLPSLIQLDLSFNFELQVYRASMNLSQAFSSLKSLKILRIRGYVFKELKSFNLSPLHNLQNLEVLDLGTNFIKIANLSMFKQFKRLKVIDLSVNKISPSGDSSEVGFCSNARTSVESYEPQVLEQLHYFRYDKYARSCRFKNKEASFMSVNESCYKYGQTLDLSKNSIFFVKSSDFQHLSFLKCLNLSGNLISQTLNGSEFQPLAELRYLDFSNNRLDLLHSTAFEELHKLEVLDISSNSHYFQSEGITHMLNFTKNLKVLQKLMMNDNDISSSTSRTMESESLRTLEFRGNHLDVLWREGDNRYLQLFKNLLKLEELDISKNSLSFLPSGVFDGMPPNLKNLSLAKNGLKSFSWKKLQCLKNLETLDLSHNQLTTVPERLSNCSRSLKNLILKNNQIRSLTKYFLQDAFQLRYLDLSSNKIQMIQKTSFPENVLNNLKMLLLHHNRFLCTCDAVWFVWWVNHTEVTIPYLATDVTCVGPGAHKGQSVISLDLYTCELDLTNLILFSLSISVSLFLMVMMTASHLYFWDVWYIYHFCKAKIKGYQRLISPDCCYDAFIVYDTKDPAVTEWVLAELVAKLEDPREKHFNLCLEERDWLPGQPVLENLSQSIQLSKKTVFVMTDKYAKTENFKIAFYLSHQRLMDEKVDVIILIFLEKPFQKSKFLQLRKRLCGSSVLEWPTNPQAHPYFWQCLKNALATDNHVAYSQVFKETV
Description: TLR7 inhibition reporter assay (HEK-Blue cells, SEAP reporter, gardiquimod stimulation). In kind it is cell-based. As to conditions: HEK-Blue cells overexpressing human TLR7, gardiquimod 7.5 μM. The essentials:
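HEK-Blue reporter cells (15,000/well TLR7, 20,000 TLR8) exposed to compound over 0.05 nM–50 μM, agonist-stimulated (R848 for TLR8, gardiquimod for TLR7), 22 h at 37 °C, 5% CO2. SEAP read with HEK-Blue Detection; % inhibition relative to agonist-plus-DMSO and known-inhibitor controls.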

Here are results for eleven compounds from patent US11180474B2 (BRISTOL-MYERS SQUIBB COMPANY, priority 2016, dated 2021).

The term IC50 denotes the midpoint of a concentration-inhibition curve. A higher IC50 goes with a need for much substance. `CCCc1c(-c2ccc(OC)c(OC)c2)[nH]c2ccc(C3CCN(C4CCN(CC(C)C)CC4)CC3)cc12` [Example 121, 2-(3,4-dimethoxyphenyl)-5-(1′-isobutyl-[1,4′-bipiperidin]-4-yl)-3-propyl-1H-indole-di-trifluoroacetic acid]: the IC50 is 378 nM on human TLR9 and 661 nM against human TLR7.

`CCc1c(-c2ccc(OC)c(OC)c2)[nH]c2ccc(C3CCN(C(=O)C(C)(C)OC(C)=O)CC3)cc12` [Example 175, 1-(4-(2-(3,4-dimethoxyphenyl)-3-ethyl-1H-indol-5-yl)piperidin-1-yl)-2-methyl-1-oxopropan-2-yl acetate]: the results for the IC50 against human TLR9 and against human TLR7 were 14100 nM and 1690 nM, respectively.

Take `COc1ccc(-c2[nH]c3ccc(C4CCN(C5CCN(CC6CC6)CC5)CC4)cc3c2C(C)C)cc1OC` [Example 198, 5-(1′-(cyclopropylmethyl)-[1,4′-bipiperidin]-4-yl)-2-(3,4-dimethoxyphenyl)-3-isopropyl-1H-indole di trifluoroacetic acid]: the values for the 50% inhibitory concentration (IC50) against human TLR9 and on human TLR7 were 490 nM and 379 nM, respectively.

For `COc1ccc(-c2[nH]c3cc(C)c(C4CCN(C5CCN(C(C)C)CC5)CC4)cc3c2C)cc1OC` [Example 115, 2-(3,4-dimethoxyphenyl)-5-(1′-isopropyl-[1,4′-bipiperidin]-4-yl)-3,6-dimethyl-1H-indole-di-trifluoroacetic acid], the 50% inhibitory concentration (IC50) against human TLR9 was 77 nM; against human TLR7 it was 132 nM.

For `CCc1c(-c2ccc(OC)c(OC)c2)[nH]c2ccc(C3CCN(C4CCN(Cc5ccn(C)n5)CC4)CC3)cc12` [Example 133, 2-(3,4-dimethoxyphenyl)-3-ethyl-5-(1′-((1-methyl-1H-pyrazol-3-yl)methyl)-[1,4′-bipiperidin]-4-yl)-1H-indole], the values for the IC50 against human TLR9 and against human TLR7 were 657 nM and 208 nM, respectively.

On to `CCc1c(-c2ccc(OC)c(OC)c2)[nH]c2ccc(C3CCN(C4CCN(Cc5cnc(C)o5)CC4)CC3)cc12` [Example 124, 5-((4-(2-(3,4-dimethoxyphenyl)-3-ethyl-1H-indol-5-yl)-[1,4′-bipiperidin]-1′-yl)methyl)-2-methyloxazole], for which the IC50 on human TLR9 was found to be 1280 nM; against human TLR7, 1870 nM.

For the compound `CCc1c(-c2ccc(OC)c(OC)c2)[nH]c2ccc(C3CCN(C4CCN(C)CC4)CC3)cc12` [Example 150, 2-(3,4-dimethoxyphenyl)-3-ethyl-5-(1′-methyl-[1,4′-bipiperidin]-4-yl)-1H-indole], the concentration for half-maximal inhibition (IC50) was 2340 nM against human TLR9 and 7980 nM against human TLR7.

`CCc1c(-c2ccc(OC)c(OC)c2)[nH]c2ccc(C3CCN(C(=O)CNCCO)CC3)cc12` [Example 159, 1-(4-(2-(3,4-dimethoxyphenyl)-3-ethyl-1H-indol-5-yl)piperidin-1-yl)-2-((2-hydroxyethyl)amino) ethan-1-one]: the IC50 at human TLR9 came out at 3380 nM; against human TLR7 it was 42 nM.

In the case of `CCc1c(-c2ccc(OC)c(OC)c2)[nH]c2ccc(C3CCN(C4CCN(Cc5cnc(C)[nH]5)CC4)CC3)cc12` [Example 153, 2-(3,4-dimethoxyphenyl)-3-ethyl-5-(1′-((2-methyl-1H-imidazol-5-yl)methyl)-[1,4′-bipiperidin]-4-yl)-1H-indole], the results for the half-inhibitory concentration (IC50) against human TLR9 and at human TLR7 were 547 nM and 1470 nM, respectively.

Consider `COc1ccc(-c2[nH]c3ccc(C4CCN(C(=O)CNC(CO)CO)CC4)cc3c2C(C)C)cc1OC` [Example 220, 2-((1,3-dihydroxypropan-2-yl)amino)-1-(4-(2-(3,4-dimethoxyphenyl)-3-isopropyl-1H-indol-5-yl)piperidin-1-yl)ethan-1-one], for which the IC50 against human TLR9 is 5580 nM; on human TLR7, 25 nM.

As for `CCc1c(-c2ccc(OC)c(OC)c2)[nH]c2ccc(C3CCN(C(=O)c4ccncc4)CC3)cc12` [Example 183, (4-(2-(3,4-dimethoxyphenyl)-3-ethyl-1H-indol-5-yl)piperidin-1-yl)(pyridin-4-yl) methanone], the IC50 on human TLR9 amounted to 10200 nM; against human TLR7 it was 533 nM.
